Measurements from patent US6171866A, “Luminescence indicator for determining calcium ions” (AVL Medical Instruments, priority 1998, dated 2001).

Experiment: Determination of the Kd values of ionophores from UV-absorption Ca^2+ titration curves
Type: binding
Settings: aqueous solution, 30 mmol/l tris/HCl buffer, CO2-free, pH 7.4; absorption at 248 nm; 0.00001 to 0.5 mol/l Ca^2+; calculated from found pKd
Experimental: wherein, at a given ionic strength and temperature, the dissociation constant (Kd) is given by Equation 2, [formula]
The PKd value (Equation 3) is the negative common logarithm of the dissociation constant:
The absorption values in dependence on the Ca^2+ concentration were measured using a commercial photometer, at an absorption wavelength of 248 nm. The resulting titration curves were normalized to the value Amax =1 at a Ca^2+ concentration of 0.00001 mol/l using Equation 4 (see below).
The Kd values of the ionophores were determined from the measured absorption values of the Ca^2+ -titration curves according to Equation 3 (see above) and Equation 4 [formula]
wherein Ax is the normalized absorption value at the given Ca^2+ concentration, Amax is the absorption value at 0.00001 mol/l Ca^2+ and pKd has the meaning indicated in Equation 3.
They were determined from the found pKd values by means of Equation 3.
`COCCN(CCOC)c1ccccc1OCCN(CC(=O)O)CC(=O)O` [Ionophore X9, Potassium N-[2-(N',N'-dimethoxyethyl)aminophenoxyethyl]imino-N,N-diacetate] gave a Kd of 6160 µM.
Molecule `COc1ccccc1N(CCOCC(=O)O)CCOCC(=O)O` [Ionophore X6, Potassium-o-anisidine-N,N-diethoxyacetate] has a Kd of 200 µM.
`COc1ccc(Cl)cc1N(CCOCC(=O)O)CCOCC(=O)O` [Ionophore X8, Potassium 5-chloro-o-anisidine-N,N-diethoxyacetate] gave a Kd of 720 µM.
With `COc1ccccc1N(CCOc1ccccc1)CCN(CC(=O)O)CC(=O)O` [Ionophore X5, Potassium N-[2-(N'-phenoxyethyl-N'-(2-methoxyphenyl)aminoethyl)]-imino-N,N-diacetate] the Kd was 6960 µM.
In the case of `CCOc1ccccc1N(CCOCC(=O)O)CCOCC(=O)O` [Ionophore X7, Potassium o-phenetidine-N,N-diethoxyacetate], the Kd is reported as 1090 µM.
Work on `CCOCCN(CCN(CC(=O)O)CC(=O)O)c1ccccc1OC` [Ionophore X3, Potassium N-[2-(N'-ethoxyethyl-N'-(2-methoxyphenyl)aminoethyl)]-imino-N,N-diacetate] yielded a Kd of 1040 µM.
Molecule `COCCN(CCN(CC(=O)O)CC(=O)O)c1ccccc1OC` [Ionophore X2, Potassium N-[2-(N'-methoxyethyl-N'-(2-methoxyphenyl)aminoethyl)]-imino-N,N-diacetate] has a Kd of 330 µM.
Work on `CCCCN(CCN(CC(=O)O)CC(=O)O)c1ccccc1OC` [Ionophore X4, Potassium N-[2-(N'-butyl-N'-(2-methoxyphenyl)aminoethyl)]-imino-N,N-diacetate] yielded a Kd of 9140 µM.
